Article PMC10382584, “Macrocyclization of linear molecules by deep learning to facilitate macrocyclic drug candidates discovery” (Nature Communications, 2023)

Columns and labels:
[1] = tested on: JAK2-STAT signaling pathways in HEL cells; test: Western blot analysis of JAK2-STAT signaling in HEL cells; format: cell-based, human; settings: 0.3-10 μM, 0.5 h; for phosphorylation of JAK2 at Y221 site: dose-dependent
Procedure: HEL cells were added into six-well plates (2 × 10^6 cells/well) and then put into the incubator (37 °C, 5% CO2). After 24 h, the tested compounds were diluted in RPMI-1640 medium (final DMSO concentration = 0.1%) with different concentrations (0 μM, 0.3 μM, 1 μM, 3 μM, and 10 μM) was added separately into the wells, and incubated for another 0.5 h, then cells were collected and lysed. Proteins from each sample were isolated by SDS-PAGE and transferred to PVDF membrane. The membranes were blocked in 5% milk (TBST) for 1 h at room temperature, and subsequently incubated with the indicated primary antibody in blocking buffer overnight at 4 °C. Primary antibodies were used as follows: p-Y1007/8-JAK2 (#3771, CST, 1:1000), p-Y221-JAK2 (#11150, SAB, 1:500), p-Y705-STAT3 (#11045, SAB, 1:1000), p-Y694-STAT5 (#13386, SAB, 1:2000), STAT3 (10253-2-AP, Proteintech, 1:4000), STAT5 (12071-1-AP, Proteintech, 1:4000), JAK2 (E-AB-70193, Elabscience, 1:2000) and β-Actin (E-AB-20034, Elabscience, 1:10000). Then the membranes were washed with TBST (3 × 5 min), incubated with HRP-conjugated secondary antibody for 1 h at room temperature, washed again, and then exposed by chemiluminescence method using the enhanced ECL immunoblotting system (Tanon, Shanghai, China). All the experiments were repeated in triplicate. Blot bands were quantified by densitometry using Image J software v1.51.

ERK2 = molecular target: T1, ERK2 (Homo sapiens, UniProt P28482); test: biochemical; set-up: DiscoveRx KINOMEscan competition binding, percent of DMSO control signal at 100 nM; settings: read-out: Fig. 4a / Percent Control / Compound 1; percent of DMSO control, competition binding
T1 construct: gene MAPK1

MKNK1 = MKNK1 (Homo sapiens, UniProt Q9BUB5); test: biochemical; set-up: DiscoveRx KINOMEscan competition binding, percent of DMSO control signal at 100 nM; settings: read-out: Fig. 4a / Percent Control / Compound 1; percent of DMSO control, competition binding
ANKK1 = ANKK1 (Homo sapiens, UniProt Q8NFD2); test: biochemical; set-up: DiscoveRx KINOMEscan competition binding, percent of DMSO control signal at 100 nM; settings: read-out: Fig. 4a / Percent Control / Compound 1; percent of DMSO control, competition binding
BMPR1A = BMPR1A (Homo sapiens, UniProt P36894); test: biochemical; set-up: DiscoveRx KINOMEscan competition binding, percent of DMSO control signal at 100 nM; settings: read-out: Fig. 4a / Percent Control / Compound 1; percent of DMSO control, competition binding
MAP4K4 = MAP4K4 (Homo sapiens, UniProt O95819); test: biochemical; set-up: DiscoveRx KINOMEscan competition binding, percent of DMSO control signal at 100 nM; settings: read-out: Fig. 4a / Percent Control / Compound 1; percent of DMSO control, competition binding
PIM1 = PIM1 (Homo sapiens, UniProt P11309); test: biochemical; set-up: DiscoveRx KINOMEscan competition binding, percent of DMSO control signal at 100 nM; settings: read-out: Fig. 4a / Percent Control / Compound 1; percent of DMSO control, competition binding
CDK8 = CDK8 (Homo sapiens, UniProt P49336); test: biochemical; set-up: DiscoveRx KINOMEscan competition binding, percent of DMSO control signal at 100 nM; settings: read-out: Fig. 4a / Percent Control / Compound 1; percent of DMSO control, competition binding
WNK1 = WNK1 (Homo sapiens, UniProt Q9H4A3); test: biochemical; set-up: DiscoveRx KINOMEscan competition binding, percent of DMSO control signal at 100 nM; settings: read-out: Fig. 4a / Percent Control / Compound 1; percent of DMSO control, competition binding
CSF1R-autoinhibited = CSF1R-autoinhibited (Homo sapiens, UniProt P07333); test: biochemical; set-up: DiscoveRx KINOMEscan competition binding, percent of DMSO control signal at 100 nM; settings: read-out: Fig. 4a / Percent Control / Compound 1; percent of DMSO control, competition binding
ERK8 = molecular target: T2, ERK8 (Homo sapiens, UniProt Q8TD08); test: biochemical; set-up: DiscoveRx KINOMEscan competition binding, percent of DMSO control signal at 100 nM; settings: read-out: Fig. 4a / Percent Control / Compound 1; percent of DMSO control, competition binding
T2 construct: gene MAPK15

BLK = BLK (Homo sapiens, UniProt P51451); test: biochemical; set-up: DiscoveRx KINOMEscan competition binding, percent of DMSO control signal at 100 nM; settings: read-out: Fig. 4a / Percent Control / Compound 1; percent of DMSO control, competition binding
SRMS = SRMS (Homo sapiens, UniProt Q9H3Y6); test: biochemical; set-up: DiscoveRx KINOMEscan competition binding, percent of DMSO control signal at 100 nM; settings: read-out: Fig. 4a / Percent Control / Compound 1; percent of DMSO control, competition binding
QSK = molecular target: T3, QSK (Homo sapiens, UniProt Q9Y2K2); test: biochemical; set-up: DiscoveRx KINOMEscan competition binding, percent of DMSO control signal at 100 nM; settings: read-out: Fig. 4a / Percent Control / Compound 1; percent of DMSO control, competition binding
T3 construct: gene SIK3

AMPK-alpha2 = molecular target: T4, AMPK-alpha2 (Homo sapiens, UniProt P54646); test: biochemical; set-up: DiscoveRx KINOMEscan competition binding, percent of DMSO control signal at 100 nM; settings: read-out: Fig. 4a / Percent Control / Compound 1; percent of DMSO control, competition binding
T4 construct: gene PRKAA2

CDKL3 = CDKL3 (Homo sapiens, UniProt Q8IVW4); test: biochemical; set-up: DiscoveRx KINOMEscan competition binding, percent of DMSO control signal at 100 nM; settings: read-out: Fig. 4a / Percent Control / Compound 1; percent of DMSO control, competition binding
TAOK3 = TAOK3 (Homo sapiens, UniProt Q9H2K8); test: biochemical; set-up: DiscoveRx KINOMEscan competition binding, percent of DMSO control signal at 100 nM; settings: read-out: Fig. 4a / Percent Control / Compound 1; percent of DMSO control, competition binding
HUNK = HUNK (Homo sapiens, UniProt P57058); test: biochemical; set-up: DiscoveRx KINOMEscan competition binding, percent of DMSO control signal at 100 nM; settings: read-out: Fig. 4a / Percent Control / Compound 1; percent of DMSO control, competition binding
SLK = SLK (Homo sapiens, UniProt Q9H2G2); test: biochemical; set-up: DiscoveRx KINOMEscan competition binding, percent of DMSO control signal at 100 nM; settings: read-out: Fig. 4a / Percent Control / Compound 1; percent of DMSO control, competition binding
EPHA2 = EPHA2 (Homo sapiens, UniProt P29317); test: biochemical; set-up: DiscoveRx KINOMEscan competition binding, percent of DMSO control signal at 100 nM; settings: read-out: Fig. 4a / Percent Control / Compound 1; percent of DMSO control, competition binding

Chain of PIM1 (P11309 whole entry): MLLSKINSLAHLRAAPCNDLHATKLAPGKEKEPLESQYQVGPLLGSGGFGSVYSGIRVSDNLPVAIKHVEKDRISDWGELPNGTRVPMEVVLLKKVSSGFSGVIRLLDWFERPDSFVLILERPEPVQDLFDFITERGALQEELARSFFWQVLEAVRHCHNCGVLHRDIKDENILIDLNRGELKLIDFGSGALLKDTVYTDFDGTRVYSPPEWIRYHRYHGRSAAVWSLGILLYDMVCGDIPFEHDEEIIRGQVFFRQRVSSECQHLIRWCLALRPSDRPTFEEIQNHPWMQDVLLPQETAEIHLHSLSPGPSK
Chain of SLK (Q9H2G2 whole entry): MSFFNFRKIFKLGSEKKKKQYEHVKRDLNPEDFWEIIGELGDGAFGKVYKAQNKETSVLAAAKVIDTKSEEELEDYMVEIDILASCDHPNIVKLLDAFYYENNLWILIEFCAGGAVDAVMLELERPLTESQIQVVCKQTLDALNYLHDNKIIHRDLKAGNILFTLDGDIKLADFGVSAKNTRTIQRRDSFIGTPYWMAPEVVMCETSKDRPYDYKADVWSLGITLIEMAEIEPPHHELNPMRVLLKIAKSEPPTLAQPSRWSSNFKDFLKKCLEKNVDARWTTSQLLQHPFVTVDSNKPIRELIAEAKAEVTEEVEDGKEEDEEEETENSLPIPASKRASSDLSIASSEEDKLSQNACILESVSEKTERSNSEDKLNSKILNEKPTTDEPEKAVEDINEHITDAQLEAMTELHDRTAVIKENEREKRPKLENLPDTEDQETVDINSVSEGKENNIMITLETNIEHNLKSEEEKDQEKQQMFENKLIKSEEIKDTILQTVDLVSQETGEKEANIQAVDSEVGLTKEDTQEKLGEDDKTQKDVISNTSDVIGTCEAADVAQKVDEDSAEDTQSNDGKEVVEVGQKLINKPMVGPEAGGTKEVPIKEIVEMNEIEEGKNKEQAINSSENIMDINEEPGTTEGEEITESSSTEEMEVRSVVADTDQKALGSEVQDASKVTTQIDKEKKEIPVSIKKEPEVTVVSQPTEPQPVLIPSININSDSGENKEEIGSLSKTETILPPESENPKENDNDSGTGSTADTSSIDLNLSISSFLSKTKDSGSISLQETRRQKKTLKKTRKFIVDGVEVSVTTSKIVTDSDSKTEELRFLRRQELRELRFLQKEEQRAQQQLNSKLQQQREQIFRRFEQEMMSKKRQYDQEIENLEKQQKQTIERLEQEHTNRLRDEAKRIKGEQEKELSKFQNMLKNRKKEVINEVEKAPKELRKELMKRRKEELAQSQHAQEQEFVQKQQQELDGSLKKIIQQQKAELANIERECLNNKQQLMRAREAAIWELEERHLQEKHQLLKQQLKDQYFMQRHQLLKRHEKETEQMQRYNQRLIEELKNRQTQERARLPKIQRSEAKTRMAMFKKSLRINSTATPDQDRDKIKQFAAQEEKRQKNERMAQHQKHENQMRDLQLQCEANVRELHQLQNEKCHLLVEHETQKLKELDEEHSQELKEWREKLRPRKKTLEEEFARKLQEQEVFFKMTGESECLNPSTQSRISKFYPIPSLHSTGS
Chain of CDKL3 (Q8IVW4 whole entry): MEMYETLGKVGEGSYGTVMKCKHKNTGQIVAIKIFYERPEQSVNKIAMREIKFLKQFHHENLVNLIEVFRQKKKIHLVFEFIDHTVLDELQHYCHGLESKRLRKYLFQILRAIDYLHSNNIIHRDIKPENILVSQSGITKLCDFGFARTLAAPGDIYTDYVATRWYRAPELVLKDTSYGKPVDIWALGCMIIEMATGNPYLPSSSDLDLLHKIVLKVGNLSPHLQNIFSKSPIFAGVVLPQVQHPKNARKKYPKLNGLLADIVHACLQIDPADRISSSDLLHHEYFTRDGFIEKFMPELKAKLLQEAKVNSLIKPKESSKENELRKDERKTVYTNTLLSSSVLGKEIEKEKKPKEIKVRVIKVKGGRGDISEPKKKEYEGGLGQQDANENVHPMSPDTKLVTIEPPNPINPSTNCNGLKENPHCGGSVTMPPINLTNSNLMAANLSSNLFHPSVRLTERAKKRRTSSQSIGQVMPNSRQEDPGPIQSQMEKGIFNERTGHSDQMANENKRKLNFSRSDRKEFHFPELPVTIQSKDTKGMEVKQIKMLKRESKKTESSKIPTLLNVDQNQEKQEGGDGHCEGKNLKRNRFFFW
Chain of MAP4K4 (O95819 whole entry): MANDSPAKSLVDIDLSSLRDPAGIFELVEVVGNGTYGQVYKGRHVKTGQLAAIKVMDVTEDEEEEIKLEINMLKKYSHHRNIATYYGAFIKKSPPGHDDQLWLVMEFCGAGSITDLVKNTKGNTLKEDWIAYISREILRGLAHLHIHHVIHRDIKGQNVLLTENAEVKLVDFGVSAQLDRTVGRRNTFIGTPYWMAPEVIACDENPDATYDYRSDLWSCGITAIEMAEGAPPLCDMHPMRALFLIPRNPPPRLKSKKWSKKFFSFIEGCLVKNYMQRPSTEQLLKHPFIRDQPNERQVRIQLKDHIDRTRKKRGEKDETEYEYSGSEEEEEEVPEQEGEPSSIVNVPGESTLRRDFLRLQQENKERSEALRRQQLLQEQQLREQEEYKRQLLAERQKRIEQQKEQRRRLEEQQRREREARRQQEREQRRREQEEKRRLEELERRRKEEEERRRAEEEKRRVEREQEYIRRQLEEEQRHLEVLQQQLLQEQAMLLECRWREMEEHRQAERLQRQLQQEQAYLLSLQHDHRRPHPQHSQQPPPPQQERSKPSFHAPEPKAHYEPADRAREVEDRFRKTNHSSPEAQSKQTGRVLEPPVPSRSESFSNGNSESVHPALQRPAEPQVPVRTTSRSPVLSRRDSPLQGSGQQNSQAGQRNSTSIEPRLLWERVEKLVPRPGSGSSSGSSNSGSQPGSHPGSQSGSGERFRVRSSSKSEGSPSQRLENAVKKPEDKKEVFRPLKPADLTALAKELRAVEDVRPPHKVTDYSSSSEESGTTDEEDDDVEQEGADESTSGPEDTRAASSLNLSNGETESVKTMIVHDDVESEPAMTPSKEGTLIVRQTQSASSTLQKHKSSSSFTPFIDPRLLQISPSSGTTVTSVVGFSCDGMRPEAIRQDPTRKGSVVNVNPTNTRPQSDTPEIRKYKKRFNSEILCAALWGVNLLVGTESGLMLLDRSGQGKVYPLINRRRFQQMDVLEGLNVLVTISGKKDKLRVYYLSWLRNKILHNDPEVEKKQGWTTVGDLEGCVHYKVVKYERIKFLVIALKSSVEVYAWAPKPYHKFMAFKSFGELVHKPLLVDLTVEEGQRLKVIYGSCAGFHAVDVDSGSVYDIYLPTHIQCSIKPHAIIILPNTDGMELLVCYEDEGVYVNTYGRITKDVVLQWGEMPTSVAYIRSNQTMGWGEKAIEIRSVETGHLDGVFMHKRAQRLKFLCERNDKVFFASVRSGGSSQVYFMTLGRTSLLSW
Chain of CDK8 (P49336 whole entry): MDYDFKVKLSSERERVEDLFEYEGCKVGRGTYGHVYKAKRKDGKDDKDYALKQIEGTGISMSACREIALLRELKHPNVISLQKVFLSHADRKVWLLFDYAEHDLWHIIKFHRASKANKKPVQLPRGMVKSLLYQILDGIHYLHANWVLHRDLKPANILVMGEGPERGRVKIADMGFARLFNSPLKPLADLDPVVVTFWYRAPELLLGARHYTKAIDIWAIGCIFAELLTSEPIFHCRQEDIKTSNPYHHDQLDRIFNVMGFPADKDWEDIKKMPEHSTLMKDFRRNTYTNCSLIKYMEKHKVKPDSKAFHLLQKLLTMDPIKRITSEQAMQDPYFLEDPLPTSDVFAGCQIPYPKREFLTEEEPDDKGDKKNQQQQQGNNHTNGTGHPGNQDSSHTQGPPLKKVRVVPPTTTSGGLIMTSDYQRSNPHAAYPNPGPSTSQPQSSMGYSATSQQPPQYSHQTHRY
Chain of ANKK1 (Q8NFD2 whole entry): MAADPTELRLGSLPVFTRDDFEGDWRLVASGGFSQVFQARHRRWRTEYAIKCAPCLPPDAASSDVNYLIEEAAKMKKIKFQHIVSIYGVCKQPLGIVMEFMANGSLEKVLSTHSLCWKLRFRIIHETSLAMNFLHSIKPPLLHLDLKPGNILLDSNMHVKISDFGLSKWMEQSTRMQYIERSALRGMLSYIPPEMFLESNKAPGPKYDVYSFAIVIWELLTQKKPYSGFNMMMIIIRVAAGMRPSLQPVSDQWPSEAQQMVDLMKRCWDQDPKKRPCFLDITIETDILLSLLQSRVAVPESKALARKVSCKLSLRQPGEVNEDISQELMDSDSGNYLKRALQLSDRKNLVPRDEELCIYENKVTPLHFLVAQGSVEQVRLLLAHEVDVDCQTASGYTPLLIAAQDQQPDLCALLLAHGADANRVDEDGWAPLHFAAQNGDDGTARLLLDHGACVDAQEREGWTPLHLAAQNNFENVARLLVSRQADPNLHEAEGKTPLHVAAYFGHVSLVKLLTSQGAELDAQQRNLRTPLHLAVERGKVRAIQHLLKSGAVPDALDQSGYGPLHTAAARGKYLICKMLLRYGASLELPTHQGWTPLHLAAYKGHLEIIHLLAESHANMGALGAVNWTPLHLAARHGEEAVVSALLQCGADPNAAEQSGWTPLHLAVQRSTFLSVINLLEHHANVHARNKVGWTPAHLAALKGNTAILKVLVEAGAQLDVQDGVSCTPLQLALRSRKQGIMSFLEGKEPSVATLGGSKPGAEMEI
Chain of MKNK1 (Q9BUB5 whole entry): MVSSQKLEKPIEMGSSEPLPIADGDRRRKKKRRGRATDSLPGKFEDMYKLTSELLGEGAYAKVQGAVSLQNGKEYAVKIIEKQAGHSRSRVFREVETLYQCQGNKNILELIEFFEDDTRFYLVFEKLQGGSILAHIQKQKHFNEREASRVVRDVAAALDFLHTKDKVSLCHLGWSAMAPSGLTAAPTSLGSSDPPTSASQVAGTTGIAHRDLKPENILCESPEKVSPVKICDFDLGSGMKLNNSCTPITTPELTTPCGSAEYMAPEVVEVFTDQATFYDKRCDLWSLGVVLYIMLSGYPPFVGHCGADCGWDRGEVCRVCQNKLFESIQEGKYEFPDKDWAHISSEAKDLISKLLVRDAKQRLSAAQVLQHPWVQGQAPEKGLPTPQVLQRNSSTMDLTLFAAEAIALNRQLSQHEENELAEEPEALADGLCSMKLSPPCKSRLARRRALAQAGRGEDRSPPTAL

Which “activation of downstream signaling molecule STAT3 and STAT5” value [1] does the source give for Cc1cnc2nc1Nc1cccc(c1)COCc1cc(ccc1OCCN1CCCC1)N2 [Compound 1] here?
The value was “significantly inhibited”.

And the “phosphorylation of JAK2 at Y1007/8 site” value [1]?
The value was “increased”.

What about the “phosphorylation of JAK2 at Y221 site” value [1] of the same molecule?
The value was “efficiently blocked”.

What about the remaining binding at 0.1 µM (ERK2) of the same molecule?
Its remaining binding at 0.1 µM is 100%.

And the remaining binding at 0.1 µM (MKNK1)?
The remaining binding at 0.1 µM was 93%.

And the remaining binding at 0.1 µM (ANKK1)?
Its remaining binding at 0.1 µM is 86%.

And the remaining binding at 0.1 µM (BMPR1A)?
The remaining binding at 0.1 µM was 97%.

And the remaining binding at 0.1 µM (MAP4K4)?
Its remaining binding at 0.1 µM is 82%.

And the remaining binding at 0.1 µM (PIM1)?
The remaining binding at 0.1 µM was 100%.

What about the remaining binding at 0.1 µM (CDK8) of the same molecule?
Its remaining binding at 0.1 µM is 100%.

And the remaining binding at 0.1 µM (WNK1)?
The remaining binding at 0.1 µM was 90%.

And the remaining binding at 0.1 µM (CSF1R-autoinhibited)?
Its remaining binding at 0.1 µM is 54%.

What about the remaining binding at 0.1 µM (ERK8) of the same molecule?
The remaining binding at 0.1 µM was 99%.

What about the remaining binding at 0.1 µM (BLK) of the same molecule?
Its remaining binding at 0.1 µM is 76%.

What about the remaining binding at 0.1 µM (SRMS) of the same molecule?
Its remaining binding at 0.1 µM is 75%.

And the remaining binding at 0.1 µM (QSK)?
Its remaining binding at 0.1 µM is 63%.

What about the remaining binding at 0.1 µM (AMPK-alpha2) of the same molecule?
The remaining binding at 0.1 µM was 97%.

And the remaining binding at 0.1 µM (CDKL3)?
Its remaining binding at 0.1 µM is 77%.

And the remaining binding at 0.1 µM (TAOK3)?
The remaining binding at 0.1 µM was 56%.

What about the remaining binding at 0.1 µM (HUNK) of the same molecule?
Its remaining binding at 0.1 µM is 100%.

And the remaining binding at 0.1 µM (SLK)?
Its remaining binding at 0.1 µM is 70%.

What about the remaining binding at 0.1 µM (EPHA2) of the same molecule?
The remaining binding at 0.1 µM was 82%.

For Cc1cnc2nc1Nc1cccc(c1)COCC=CCOCc1cc(ccc1OCCN1CCCC1)N2 [Compound 3], which “activation of downstream signaling molecule STAT3 and STAT5” value [1] is on record?
Its value is “significantly inhibited”.

What about the “phosphorylation of JAK2 at Y1007/8 site” value [1] of the same molecule?
Its value is “increased”.

And the “phosphorylation of JAK2 at Y221 site” value [1]?
The value was “efficiently blocked”.
